Measurements taken from ChEMBL document CHEMBL3832761, “MMV Pathogen Box Bioactivity Data” (2017).
Converted amounts (≈) assume the structure as drawn.

Legend:
Type in all cases: functional
[1] = tested on: Mycobacterium tuberculosis; assay: AntiMycobacterium tuberculosis activity 1-week 7H9/ADC/Tw MIC (uM); settings: 168 h
[2] = tested on: Mycobacterium tuberculosis; assay: (§1) AntiMycobacterium tuberculosis activity day 10 in 7H9/2.5mM butyrate/pH6/0.1mM nitrite MIC90 (uM); settings: 240 h
[3] = tested on: Mycobacterium tuberculosis; assay: AntiMycobacterium tuberculosis activity day 21 in 7H9/2.5mM butyrate/pH6/0.1mM nitrite MIC90 (uM); settings: 504 h
[4] = tested on: Mycobacterium tuberculosis; assay: AntiMycobacterium tuberculosis activity 2-week 7H9/ADC/Tw MIC (uM); settings: 336 h
[5] = tested on: Mycobacterium tuberculosis; assay: AntiMycobacterium tuberculosis activity 1-week GAST/Fe MIC (uM); settings: 168 h
[6] = tested on: Mycobacterium tuberculosis; assay: AntiMycobacterium tuberculosis activity day 21 MIC99 in 7H9/2.5mM butyrate/pH6/0.1mM nitrite MIC99 (uM); settings: 504 h
[7] = tested on: Mycobacterium tuberculosis; assay: as §1; settings: 240 h; remark: listed apart in the source
[8] = tested on: Mycobacterium tuberculosis; assay: AntiMycobacterium tuberculosis activity Replicating form: Average MIC90 (uM)
[9] = tested on: Mycobacterium tuberculosis; assay: AntiMycobacterium tuberculosis activity 2-week GAST/Fe MIC (uM); settings: 336 h
[10] = tested on: Mycobacterium tuberculosis; assay: AntiMycobacterium tuberculosis activity 2-week Alamar Blue 7H9/cholesterol/BSA/Tx MIC (uM); settings: 336 h
[11] = tested on: Mycobacterium tuberculosis; assay: AntiMycobacterium tuberculosis activity 1-week 7H9/cholesterol/BSA/Tx MIC (uM); settings: 168 h
[12] = tested on: Mycobacterium tuberculosis; assay: AntiMycobacterium tuberculosis activity 2-week 7H9/glucose/BSA/Tx MIC (uM); settings: 336 h
HepG2 = assay: HepG2 CC50 (uM) Cytotoxicity; settings: Homo sapiens
[13] = tested on: Mycobacterium tuberculosis; assay: AntiMycobacterium tuberculosis activity 1-week 7H9/glucose/BSA/Tx MIC (uM); settings: 168 h
[14] = tested on: Mycobacterium tuberculosis; assay: AntiMycobacterium tuberculosis activity Non-Replicating form: Average MIC90 (uM)
[15] = tested on: Mycobacterium tuberculosis; assay: AntiMycobacterium tuberculosis activity 1-week 7H9/DPPC/cholesterol/BSA/Tx MIC (uM); settings: 168 h
[16] = tested on: Mycobacterium tuberculosis; assay: AntiMycobacterium tuberculosis activity 2-week 7H9/DPPC/cholesterol/BSA/Tx MIC (uM); settings: 336 h
[17] = tested on: Mycobacterium tuberculosis; assay: AntiMycobacterium tuberculosis activity 2-week Alamar Blue 7H9/ADC/Tw MIC (uM); settings: 336 h

| SMILES | MIC [1] [µM] | MIC90 [2] [µM] | MIC90 [3] [µM] | MIC [4] [µM] | MIC [5] [µM] | MIC [6] [µM] | MIC90 [7] [µM] | MIC90 [8] [µM] | MIC [9] [µM] | MIC [10] [µM] | MIC [11] [µM] | MIC [12] [µM] | CC50 (HepG2) [µM] | MIC [13] [µM] | MIC90 [14] [µM] | MIC [15] [µM] | MIC [16] [µM] | MIC [17] [µM] |
| --- | --- | --- | --- | --- | --- | --- | --- | --- | --- | --- | --- | --- | --- | --- | --- | --- | --- | --- |
| NC(=O)c1cc(Br)ccc1OCCOc1ccccc1 | > 50 | 50 (≈ 16.8 µg/mL) | > 50 | > 50 | 6.25 (≈ 2.1 µg/mL) | > 50 | > 50 | > 100 | 37 (≈ 12.4 µg/mL) | > 50 | 50 (≈ 16.8 µg/mL) | > 50 | > 100 | > 50 | > 100 | > 50 | > 50 | > 50 |
| COc1ccc(OC(C)C(=O)Nc2ccc(Cl)cc2C)cc1 (configuration not stated) | 4.7 (≈ 1.5 µg/mL) | 25 (≈ 7.99 µg/mL) | 25 (≈ 7.99 µg/mL) | 6.25 (≈ 2 µg/mL) | 2.3 (≈ 0.736 µg/mL) | 50 (≈ 16 µg/mL) | > 50 | 14.6 (≈ 4.68 µg/mL) | 2.3 (≈ 0.736 µg/mL) | 12.5 (≈ 4 µg/mL) | 9.4 (≈ 3.01 µg/mL) | 9.4 (≈ 3.01 µg/mL) | > 100 | 9.4 (≈ 3.01 µg/mL) | 12.2 (≈ 3.91 µg/mL) | 6.25 (≈ 2 µg/mL) | 6.25 (≈ 2 µg/mL) | 6.25 (≈ 2 µg/mL) |
| CCC(C)NC(=O)c1ccc(NC(=O)C2(c3ccccc3)CCCC2)cc1 (configuration not stated) | > 50 | > 50 | > 50 | > 50 | 12.5 (≈ 4.56 µg/mL) | > 50 | > 50 | > 100 | > 50 | > 50 | > 50 | > 50 | > 100 | > 50 | > 100 | > 50 | > 50 | > 50 |
| CC1=NN(c2nc3ccccc3s2)C(=O)C1Cc1cccc2ccccc12 (configuration not stated) | 19 (≈ 7.06 µg/mL) | 6.25 (≈ 2.32 µg/mL) | 12.5 (≈ 4.64 µg/mL) | 25 (≈ 9.29 µg/mL) | 1.56 (≈ 0.579 µg/mL) | 12.5 (≈ 4.64 µg/mL) | 12.5 (≈ 4.64 µg/mL) | 96.7 (≈ 35.9 µg/mL) | 3.13 (≈ 1.16 µg/mL) | 19 (≈ 7.06 µg/mL) | 12.5 (≈ 4.64 µg/mL) | 12.5 (≈ 4.64 µg/mL) | 21.9 | 12.5 (≈ 4.64 µg/mL) | > 100 | 12.5 (≈ 4.64 µg/mL) | 12.5 (≈ 4.64 µg/mL) | 25 (≈ 9.29 µg/mL) |
| CCCCOC(=O)Nc1cc2nc(C3CCCCC3)[nH]c2cc1N1CCCC1 | 0.05 (≈ 0.0192 µg/mL) | 0.39 (≈ 0.15 µg/mL) | 0.78 (≈ 0.3 µg/mL) | 0.2 (≈ 0.0769 µg/mL) | 0.1 (≈ 0.0385 µg/mL) | 0.78 (≈ 0.3 µg/mL) | 0.78 (≈ 0.3 µg/mL) | 0.3 (≈ 0.115 µg/mL) | 0.15 (≈ 0.0577 µg/mL) | 0.2 (≈ 0.0769 µg/mL) | 0.1 (≈ 0.0385 µg/mL) | 0.39 (≈ 0.15 µg/mL) | 26.8 | 0.2 (≈ 0.0769 µg/mL) | 97.3 (≈ 37.4 µg/mL) | 0.15 (≈ 0.0577 µg/mL) | 0.2 (≈ 0.0769 µg/mL) | 0.2 (≈ 0.0769 µg/mL) |
| COc1ccc(-c2nc(-c3cccc(NC(=O)Cc4ccc(F)cc4)c3)no2)cc1OC | 0.3 (≈ 0.13 µg/mL) | 3.12 (≈ 1.35 µg/mL) | 6.25 (≈ 2.71 µg/mL) | 0.39 (≈ 0.169 µg/mL) | 1.56 (≈ 0.676 µg/mL) | 6.25 (≈ 2.71 µg/mL) | 3.12 (≈ 1.35 µg/mL) | 0.39 (≈ 0.169 µg/mL) | 1.56 (≈ 0.676 µg/mL) | 0.6 (≈ 0.26 µg/mL) | 0.6 (≈ 0.26 µg/mL) | 0.2 (≈ 0.0867 µg/mL) | > 100 | 0.2 (≈ 0.0867 µg/mL) | 1.61 (≈ 0.698 µg/mL) | 0.78 (≈ 0.338 µg/mL) | 0.78 (≈ 0.338 µg/mL) | 0.39 (≈ 0.169 µg/mL) |
| O=C(NC1CCCCC1)N1CCN(Cc2ccc3c(c2)OCO3)CC1 | > 50 | > 50 | 50 (≈ 17.3 µg/mL) | > 50 | 0.78 (≈ 0.269 µg/mL) | 50 (≈ 17.3 µg/mL) | > 50 | > 100 | 1.2 (≈ 0.415 µg/mL) | 12.5 (≈ 4.32 µg/mL) | 6.25 (≈ 2.16 µg/mL) | > 50 | > 100 | > 50 | > 100 | 9.4 (≈ 3.25 µg/mL) | 50 (≈ 17.3 µg/mL) | 12.5 (≈ 4.32 µg/mL) |
| CNc1snc(C)c1C(=O)NCCOc1ccc(OC)cc1 | > 50 | 6.25 (≈ 2.01 µg/mL) | 50 (≈ 16.1 µg/mL) | > 50 | 0.2 (≈ 0.0643 µg/mL) | 50 (≈ 16.1 µg/mL) | 6.25 (≈ 2.01 µg/mL) | > 100 | 0.78 (≈ 0.251 µg/mL) | 3.13 (≈ 1.01 µg/mL) | 3.13 (≈ 1.01 µg/mL) | > 50 | > 100 | 50 (≈ 16.1 µg/mL) | 19.8 (≈ 6.36 µg/mL) | 19 (≈ 6.11 µg/mL) | 50 (≈ 16.1 µg/mL) | 12.5 (≈ 4.02 µg/mL) |
| CC(C)n1ncc2c(C(=O)NCC(c3cccs3)N3CCOCC3)cc(-c3ccccc3)nc21 (configuration not stated) | 0.78 (≈ 0.371 µg/mL) | 3.12 (≈ 1.48 µg/mL) | 3.12 (≈ 1.48 µg/mL) | 1.2 (≈ 0.571 µg/mL) | 0.3 (≈ 0.143 µg/mL) | 1.5 (≈ 0.713 µg/mL) | 1.5 (≈ 0.713 µg/mL) | 0.61 (≈ 0.29 µg/mL) | 0.3 (≈ 0.143 µg/mL) | 1.56 (≈ 0.742 µg/mL) | 0.6 (≈ 0.285 µg/mL) | 1.2 (≈ 0.571 µg/mL) | 58 | 1.2 (≈ 0.571 µg/mL) | 1.28 (≈ 0.609 µg/mL) | 0.78 (≈ 0.371 µg/mL) | 0.78 (≈ 0.371 µg/mL) | 1.2 (≈ 0.571 µg/mL) |
